2 compounds from patent US20070088043A1, “Novel HDAC inhibitors” (ORCHID RESEARCH LABORATORIES LIMITED., priority 2005, published 2007) can be followed below.

Molecules are shown by their SMILES.

In one experiment the test system is MDAMB231/U251. Kind of experiment: Anti-cancer screen (MTT), MDAMB231/U251. It counts as cell-based. Conditions: MDAMB231/U251 cells, 48 hours; for GI50: concentration to decrease % growth by 50%; for IC100: concentration to decrease % growth by 100%, read-out: MDAMB231/U251 TGI; for LC50: concentration to decrease % growth by 150%. The method, boiled down:
(§1)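 HCT116, NCIH460 and U251 cells (5000/well, DMEM + 10% FBS) seeded 24 h, then treated 48 h in triplicate at 0.01, 0.1, 1, 10, 100 μM; time-zero plate kept. MTT 3 h, formazan in DMSO read at 570 nm; GI50, TGI, LC50 derived.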

For another experiment, the system named is HCT 116 cells. Description: Anti-cancer screen (MTT), HCT116. The note with it: Homo sapiens, HCT-116, HCT116 cells, 48 hours, MTT; for GI50: concentration to decrease % growth by 50%; for IC100: concentration to decrease % growth by 100%, read-out: HCT116 TGI; for LC50: concentration to decrease % growth by 150%. Format: cell-based. The method in brief:
as §1

For experiment [1], the system named is HDAC (Mouse Liver Extract). Kind of experiment: Histone Deacetylase (HDAC) Inhibition Assay using Boc-Lys (Ac)-AMC Substrate. Format: biochemical. The note with it: mouse liver enzyme, NA = No Activity, in % (unit assumed). The method in brief: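 Mouse liver extract was the HDAC source. It was preincubated with inhibitor for 5 min at 30° C, then incubated with Boc-Lys(Ac)-AMC substrate for 30 min at 30° C. Trypsin stop solution was added for a 20–30 min development step, and released AMC was read by fluorescence (ex 360/365, em 440/460 nm) with blank subtraction.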

In a further experiment the test system is NCIH 460 cells. Kind of experiment: Anti-cancer screen (MTT), NCIH460. Format: cell-based. Conditions: Homo sapiens, NCI-H460, NCIH460 cells, 48 hours, MTT; for GI50: concentration to decrease % growth by 50%; for IC100: concentration to decrease % growth by 100%, read-out: NCIH460 TGI; for LC50: concentration to decrease % growth by 150%. The method in brief:
as §1

The test system of experiment [2] is NCIH460, HCT116, MDAMB231/U251. Description: Anti-cancer screen, mean GI50 over the cell lines. Format: cell-based. The note with it: in µM. The method, boiled down: as §1

In the case of `CC(=O)NCCCCCC(=O)N1CCN(CC(=O)Nc2nc3ccccc3s2)CC1` [Example 43], in the experiment with MDAMB231/U251, the GI50 was more than 100 µM, the IC100 was more than 100 µM and the LC50 was more than 100 µM. For the same compound, in the experiment on HCT 116 cells, halving of growth (GI50) required 90 µM, the IC100 was more than 100 µM and the LC50 is more than 100 µM. In experiment [1], the “HDAC Inhibition 1 μM” value was 2.61 and the “HDAC Inhibition 10 μM” value was 5.24. For the same compound, in the experiment with NCIH 460 cells, the GI50 was more than 100 µM, the IC100 is more than 100 µM and the 50% lethal concentration (LC50) was more than 100 µM. The “Mean GI50” value in experiment [2] is reported as more than 100.
In the case of `N[C@H](CO)C(=O)NCCCCCC(=O)N1CCN(CC(=O)Nc2nc3ccccc3s2)CC1` [Example 44], in the experiment on MDAMB231/U251, the GI50 is more than 100 µM, the IC100 was more than 100 µM and the 50% lethal concentration (LC50) is more than 100 µM. For the same compound, in the experiment with HCT 116 cells, the GI50 was more than 100 µM, the IC100 is more than 100 µM and the LC50 was more than 100 µM. Moreover, in experiment [1], the “HDAC Inhibition 1 μM” value was determined as 5.45 and the “HDAC Inhibition 10 μM” value turned out to be 1.79. For the same compound, in the experiment on NCIH 460 cells, the GI50 was more than 100 µM, the IC100 is more than 100 µM and the LC50 was more than 100 µM. In addition, the “Mean GI50” value in experiment [2] was more than 100.

The term GI50 denotes the concentration at which growth is held to half of that of the control. In general, LC50 refers to the concentration lethal to half of the exposed cells or organisms. A higher LC50 goes with lower toxicity.
